{"source": "paper PMC8371902", "about": "“Phase 1 study of M2698, a p70S6K/AKT dual inhibitor, in patients with advanced cancer” (Journal of Hematology & Oncology, 2021)", "tested_on": "patients with advanced metastatic cancer", "description": "In this phase 1 study, dose escalation was followed by expansion cohorts of once-daily, oral M2698 in continuous 21-day cycles. Primary objectives were to determine the maximum tolerated dose (MTD), dose-limiting toxicities (DLTs), and recommended phase 2 dose (RP2D). Secondary objectives were to assess safety and tolerability, pharmacokinetics (PK, including food effect) and antitumor activity. Pharmacodynamic biomarker assessments were exploratory. Treatment was discontinued if there was disease progression, toxicity or consent withdrawal.\nIn Part 1, M2698 monotherapy was investigated in a dose escalation with a food effect cohort. In Part 2, M2698 was investigated as monotherapy (expansion cohort) to further characterize safety, tolerability and pharmacokinetics, and assess antitumor activity in PAM + patients without confounding markers (exploratory).\nDose escalation analysis included all patients who experienced a DLT and those who received ≥ 80% of planned M2698 doses in cycle 1 without experiencing a DLT. Safety analysis included all patients who received ≥ 1 dose of M2698. PK analysis included all patients who received ≥ 1 dose of M2698 and had measurable plasma concentrations. Dose proportionality was tested using the power model (linear regression approach on the log -transformed scale).", "note": "Like-named read-outs stand apart in the source and are kept apart here."}
{"compound": "NC(=O)c1cccc2c(N[C@H](CN3CCC3)c3ccc(Cl)c(C(F)(F)F)c3)ncnc12", "note": "[M2698]", "values": [{"measurement": "M2698-related TEAE: Hyperhidrosis", "setting": "30 mg n=3", "value": 0}, {"measurement": "M2698-related TEAE: Hypokalaemia", "setting": "30 mg n=3", "value": 1}, {"measurement": "M2698-related TEAE: Hypomagnesaemia", "setting": "30 mg n=3", "value": 0}, {"measurement": "M2698-related TEAE: Insomnia", "setting": "30 mg n=3", "value": 0}, {"measurement": "M2698-related TEAE: Investigations", "setting": "30 mg n=3", "value": 0}, {"measurement": "M2698-related TEAE: Lipase increased", "setting": "30 mg n=3", "value": 0}, {"measurement": "M2698-related TEAE: Lymphopenia", "setting": "30 mg n=3", "value": 0}, {"measurement": "M2698-related TEAE: Metabolism and nutrition disorders", "setting": "30 mg n=3", "value": 1}, {"measurement": "M2698-related TEAE: Mucosal inflammation", "setting": "30 mg n=3", "value": 0}, {"measurement": "M2698-related TEAE: Nausea", "setting": "30 mg n=3", "value": 0}, {"measurement": "M2698-related TEAE: Nervous system disorders", "setting": "30 mg n=3", "value": 0}, {"measurement": "M2698-related TEAE: Nightmare", "setting": "30 mg n=3", "value": 0}, {"measurement": "M2698-related TEAE: Onychomadesis", "setting": "30 mg n=3", "value": 0}, {"measurement": "M2698-related TEAE: Paranoia", "setting": "30 mg n=3", "value": 0}, {"measurement": "M2698-related TEAE: Photosensitivity reaction", "setting": "30 mg n=3", "value": 0}, {"measurement": "M2698-related TEAE: Posterior reversible encephalopathy syndrome", "setting": "30 mg n=3", "value": 0}, {"measurement": "M2698-related TEAE: Pruritus generalised", "setting": "30 mg n=3", "value": 0}, {"measurement": "M2698-related TEAE: Psychiatric disorders", "setting": "30 mg n=3", "value": 0}, {"measurement": "M2698-related TEAE: Rash", "setting": "30 mg n=3", "value": 0}, {"measurement": "M2698-related TEAE: Rash maculo-papular", "setting": "30 mg n=3", "value": 1}, {"measurement": "M2698-related TEAE: Skin and subcutaneous tissue disorders", "setting": "30 mg n=3", "value": 1}, {"measurement": "M2698-related TEAE: Subjects with at least one event", "setting": "30 mg n=3", "value": 2}, {"measurement": "M2698-related TEAE: Transaminases increased", "setting": "30 mg n=3", "value": 0}, {"measurement": "M2698-related TEAE: Tremor", "setting": "30 mg n=3", "value": 0}, {"measurement": "M2698-related TEAE: Vision blurred", "setting": "30 mg n=3", "value": 1}, {"measurement": "M2698-related TEAE: Vomiting", "setting": "30 mg n=3", "value": 0}, {"measurement": "M2698-related TEAE: White blood cell count decreased", "setting": "30 mg n=3", "value": 0}, {"measurement": "M2698-related TEAE: Abnormal dreams", "setting": "60 mg n=6", "value": 0}, {"measurement": "M2698-related TEAE: Affect lability", "setting": "60 mg n=6", "value": 1}, {"measurement": "M2698-related TEAE: Alanine aminotransferase increased", "setting": "60 mg n=6", "value": 1}, {"measurement": "M2698-related TEAE: Amylase increased", "setting": "60 mg n=6", "value": 1}, {"measurement": "M2698-related TEAE: Anaemia", "setting": "60 mg n=6", "value": 0}, {"measurement": "M2698-related TEAE: Angina pectoris", "setting": "60 mg n=6", "value": 1}, {"measurement": "M2698-related TEAE: Anxiety", "setting": "60 mg n=6", "value": 0}, {"measurement": "M2698-related TEAE: Aphasia", "setting": "60 mg n=6", "value": 0}, {"measurement": "M2698-related TEAE: Ataxia", "setting": "60 mg n=6", "value": 0}, {"measurement": "M2698-related TEAE: Blood and lymphatic system disorders", "setting": "60 mg n=6", "value": 0}, {"measurement": "M2698-related TEAE: Blood creatine phosphokinase increased", "setting": "60 mg n=6", "value": 0}, {"measurement": "M2698-related TEAE: Blood creatinine increased", "setting": "60 mg n=6", "value": 0}, {"measurement": "M2698-related TEAE: Cardiac disorders", "setting": "60 mg n=6", "value": 1}, {"measurement": "M2698-related TEAE: Cognitive disorder", "setting": "60 mg n=6", "value": 0}, {"measurement": "M2698-related TEAE: Constipation", "setting": "60 mg n=6", "value": 0}, {"measurement": "M2698-related TEAE: Decreased appetite", "setting": "60 mg n=6", "value": 0}, {"measurement": "M2698-related TEAE: Delusion", "setting": "60 mg n=6", "value": 0}, {"measurement": "M2698-related TEAE: Depression", "setting": "60 mg n=6", "value": 0}, {"measurement": "M2698-related TEAE: Diarrhoea", "setting": "60 mg n=6", "value": 0}, {"measurement": "M2698-related TEAE: Diarrhoea haemorrhagic", "setting": "60 mg n=6", "value": 0}, {"measurement": "M2698-related TEAE: Dizziness", "setting": "60 mg n=6", "value": 0}, {"measurement": "M2698-related TEAE: Dry eye", "setting": "60 mg n=6", "value": 0}, {"measurement": "M2698-related TEAE: Dry mouth", "setting": "60 mg n=6", "value": 0}, {"measurement": "M2698-related TEAE: Dysgeusia", "setting": "60 mg n=6", "value": 0}, {"measurement": "M2698-related TEAE: Dyspepsia", "setting": "60 mg n=6", "value": 0}, {"measurement": "M2698-related TEAE: Dysphagia", "setting": "60 mg n=6", "value": 0}, {"measurement": "M2698-related TEAE: Energy increased", "setting": "60 mg n=6", "value": 0}, {"measurement": "M2698-related TEAE: Erythema", "setting": "60 mg n=6", "value": 0}, {"measurement": "M2698-related TEAE: Euphoric mood", "setting": "60 mg n=6", "value": 0}, {"measurement": "M2698-related TEAE: Eye disorders", "setting": "60 mg n=6", "value": 0}, {"measurement": "M2698-related TEAE: Fatigue", "setting": "60 mg n=6", "value": 0}, {"measurement": "M2698-related TEAE: Gamma-glutamyltransferase increased", "setting": "60 mg n=6", "value": 0}, {"measurement": "M2698-related TEAE: Gastrointestinal disorders", "setting": "60 mg n=6", "value": 0}, {"measurement": "M2698-related TEAE: Gastrooesophageal reflux disease", "setting": "60 mg n=6", "value": 0}, {"measurement": "M2698-related TEAE: General disorders and administration site conditions", "setting": "60 mg n=6", "value": 0}, {"measurement": "M2698-related TEAE: Headache", "setting": "60 mg n=6", "value": 0}, {"measurement": "M2698-related TEAE: Hyperhidrosis", "setting": "60 mg n=6", "value": 0}, {"measurement": "M2698-related TEAE: Hypokalaemia", "setting": "60 mg n=6", "value": 0}, {"measurement": "M2698-related TEAE: Hypomagnesaemia", "setting": "60 mg n=6", "value": 0}, {"measurement": "M2698-related TEAE: Insomnia", "setting": "60 mg n=6", "value": 0}, {"measurement": "M2698-related TEAE: Investigations", "setting": "60 mg n=6", "value": 1}, {"measurement": "M2698-related TEAE: Lipase increased", "setting": "60 mg n=6", "value": 1}, {"measurement": "M2698-related TEAE: Lymphopenia", "setting": "60 mg n=6", "value": 0}, {"measurement": "M2698-related TEAE: Metabolism and nutrition disorders", "setting": "60 mg n=6", "value": 0}, {"measurement": "M2698-related TEAE: Mucosal inflammation", "setting": "60 mg n=6", "value": 0}, {"measurement": "M2698-related TEAE: Nausea", "setting": "60 mg n=6", "value": 0}, {"measurement": "M2698-related TEAE: Nervous system disorders", "setting": "60 mg n=6", "value": 0}, {"measurement": "M2698-related TEAE: Nightmare", "setting": "60 mg n=6", "value": 0}, {"measurement": "M2698-related TEAE: Onychomadesis", "setting": "60 mg n=6", "value": 1}, {"measurement": "M2698-related TEAE: Paranoia", "setting": "60 mg n=6", "value": 0}, {"measurement": "M2698-related TEAE: Photosensitivity reaction", "setting": "60 mg n=6", "value": 0}, {"measurement": "M2698-related TEAE: Posterior reversible encephalopathy syndrome", "setting": "60 mg n=6", "value": 0}, {"measurement": "M2698-related TEAE: Pruritus generalised", "setting": "60 mg n=6", "value": 0}, {"measurement": "M2698-related TEAE: Psychiatric disorders", "setting": "60 mg n=6", "value": 1}, {"measurement": "M2698-related TEAE: Rash", "setting": "60 mg n=6", "value": 0}, {"measurement": "M2698-related TEAE: Rash maculo-papular", "setting": "60 mg n=6", "value": 0}, {"measurement": "M2698-related TEAE: Skin and subcutaneous tissue disorders", "setting": "60 mg n=6", "value": 1}, {"measurement": "M2698-related TEAE: Subjects with at least one event", "setting": "60 mg n=6", "value": 2}, {"measurement": "M2698-related TEAE: Transaminases increased", "setting": "60 mg n=6", "value": 0}, {"measurement": "M2698-related TEAE: Tremor", "setting": "60 mg n=6", "value": 0}, {"measurement": "M2698-related TEAE: Vision blurred", "setting": "60 mg n=6", "value": 0}, {"measurement": "M2698-related TEAE: Vomiting", "setting": "60 mg n=6", "value": 0}, {"measurement": "M2698-related TEAE: White blood cell count decreased", "setting": "60 mg n=6", "value": 0}, {"measurement": "DLT observed", "setting": "60 mg, n = 1, resolved following treatment interruption", "value": "grade 3 lipase increase"}, {"measurement": "M2698-related TEAE: Abnormal dreams", "setting": "75 mg n=4", "value": 1}, {"measurement": "M2698-related TEAE: Affect lability", "setting": "75 mg n=4", "value": 0}, {"measurement": "M2698-related TEAE: Alanine aminotransferase increased", "setting": "75 mg n=4", "value": 0}, {"measurement": "M2698-related TEAE: Amylase increased", "setting": "75 mg n=4", "value": 0}, {"measurement": "M2698-related TEAE: Anaemia", "setting": "75 mg n=4", "value": 0}, {"measurement": "M2698-related TEAE: Angina pectoris", "setting": "75 mg n=4", "value": 0}, {"measurement": "M2698-related TEAE: Anxiety", "setting": "75 mg n=4", "value": 0}, {"measurement": "M2698-related TEAE: Aphasia", "setting": "75 mg n=4", "value": 0}]}
